Results as given in ChEMBL document CHEMBL1157633, “Prediction and evaluation of protein farnesyltransferase inhibition by commercial drugs” (J Med Chem, 2010).
Active and inactive are the calls of the source. The calls are words filed in the database; no cut-off is given here.

Experiments:
[1] = Blockade of protein farnesyltransferase by aggregate-based inhibition assay
[2] = Blockade of protein farnesyltransferase at 100 uM by aggregate-based inhibition assay
[3] = system: MDCK; experiment: Inhibition of protein farnesyltransferase-mediated farnesylation of GFP-tagged H-Ras protein overexpressed in MDCK cells assessed as inhibition of protein localization into golgi and plasma membrane at 25 uM after 24 hrs by Hoechst 34580 staining-based confocal microscopy; assay type: cell-based
[4] = Inhibition of protein farnesyltransferase by continuous fluorescence assay
[5] = system: MDCK; experiment: Cytotoxicity against MDCK cells at >10 uM; assay type: cell-based, Canis lupus familiaris; conditions: dog
[6] = system: MDCK; experiment: Inhibition of protein farnesyltransferase-mediated farnesylation of GFP-tagged H-Ras protein overexpressed in MDCK cells assessed as inhibition of protein localization into golgi and plasma membrane at 10 uM after 48 hrs by Hoechst 34580 staining-based confocal microscopy; assay type: cell-based

| IC50 [4] [µM] | SMILES | Activity [1] | other results |
| --- | --- | --- | --- |
|  | Clc1ccc(COC(Cn2ccnc2)c2ccc(Cl)cc2Cl)cc1 (stereo not given) | Active |  |
|  | Clc1ccccc1C(c1ccccc1)(c1ccccc1)n1ccnc1 |  | Activity [2]: inactive |
|  | O=C1OC(c2ccc(O)cc2)(c2ccc(O)cc2)c2c(I)c(I)c(I)c(I)c21 | inactive |  |
|  | Clc1ccc(COC(Cn2ccnc2)c2ccc(Cl)cc2Cl)c(Cl)c1 (stereo not given) [MICONAZOLE] | Active | Activity [5]: Toxic; Activity [6]: Active |
| 76 | Cc1cncc(CN2CCC(=C3c4ccc(Cl)cc4CCc4cccnc43)CC2)c1 [RUPATADINE] |  |  |
| > 200 | CC(C)C[C@H](NC(=O)[C@@H](O)[C@H](N)Cc1ccccc1)C(=O)O [UBENIMEX] |  |  |

| SMILES | IC50 [4] [µM] | Activity [1] | other results |
| --- | --- | --- | --- |
| CCOC(=O)N1CCC(=C2c3ccc(Cl)cc3CCc3cccnc32)CC1 [LORATADINE] | 13.3 |  | Activity [3]: inactive |
